Experimental data published in publication PMC10141580, “Cyclic Dichalcogenides Extend the Reach of Bioreductive Prodrugs to Harness Thiol/Disulfide Oxidoreductases: Applications to seco-Duocarmycins Targeting the Thioredoxin System” (ACS Central Science, 2023).
Like-named read-outs stand apart in the source and are kept apart here.

What was measured:
[1] = tested on: NCI-60 standardized human tumor cell line panel; test: cells; type: cell-based; conditions: read-out: GI50
HeLa-HRE cells = test: Resazurin cytotoxicity assay, HeLa-HRE, 48 h; conditions: for IC50(HeLa)/IC50(A549): ratio HeLa vs A549; for IC50: read-out: IC50(nM): HeLa, HeLa, 48 h
Method: (§1) We used A549 lung cancer and HeLa cervical cancer cell lines for initial screening of the prodrugs.
HeLa-HRE cells were treated with prodrugs of the
Dose -response curves were calculated from at least 27 incremental single concentrations over a
range of at least three log units.

A549 cells = test: Resazurin cytotoxicity assay, A549, 72 h; conditions: read-out: IC50(nM): A549
Method: as §1
Fi gure S9: Cell ular resazurin-based cytotoxi ci ty as s a y.
Dose -response curves were calculated from at least 27 incremental single concentrations over a range
of at least three log units. Individual experiments with annotated experiment numbers are shown for each prodrug

mouse = test: Tolerability for repeated dose administration in vivo (summary); conditions: for remarks: repeated dose administration
Balb/c mice = test: Moderate repeated dosing tolerability study; type: in vivo
Method: Next, a moderate repeated dosing study in Balb/c mice (3 animals per group) tested the importance of solubilizing the prodrugs.
Methods for in vivo animal studies
All in vivo studies were conducted as contract research together with React ionBiology Eur ope G mbH (Freiburg,
Germany), EPO – Experimental Pharmacology & Oncology GmbH (Berlin, Germany); Bient a/ Enam ine Lt d. (Kyiv,
Ukraine) and Leit at – Managing Technologies (Barcelona, Spain), adhering to the respective animal welfare
Mice were kept in individually ventilated cages at constant temperature (22±2 °C, air-conditioned) and humidity (45
– 65%), under optimum hygienic conditions with 10 – 15 air changes per hour. A cycle of 12 h artificial fluorescent
light ning and 12 h darkness was applied , and animal behavior was monitored daily throughout the studies. The
animals received food and water ad libit um.
To evaluate toxicity of selected compounds, dose level selection studies within dose range from 0.1 mg/kg to
10 mg/kg were performed by intravenous administration into Balb /c mice. Each dose for each tested compound
was administered in one mouse.
changes and clinical signs of gross toxicity three tim es per week for 21 consecutive days of post-dosing period.
After the first week of observation without adverse events, two doses for each test compound were selected as
tolerated. These two doses were tested in two additional mice for confirmation of toler ability. Additional animals
consecutive days of post-dosing period. Toxicity of repeated administrations was tested wit h t hr ee repeat ed pr e-
selected doses at a dosing interval of 7 days. Mortality, body weight changes, and clinical signs of gross toxicity
were monitored after each drug administration and three times per week for 21 consecutive days after the first
compound administration. Bleed ing with subsequent hematological tests, clinical chemistry parameters analysis
(ALT, AST, ALP, LDH, creatine kinase, creatinine, urea, cholesterol, and triglycerides), and necropsy with
macroscopic inspection were performed on the terminal day of the repeated dosing-regime.
To test tolerability of selected compounds in vivo, female BALB/c mice were randomized by weight into seven
groups of t hree animals.

CN1CCN(C(=O)CCN(C(=O)Oc2cc3c(c4ccccc24)[C@H](CCl)CN3C(=O)c2cc3cc(OCCCN4CCC4)ccc3[nH]2)[C@H]2CCSSC2)CC1 [P-SS60-CBI-AZI]
GI50 ([1]; 786-0, AZI sheet): 330 nM | GI50 ([1]; A498, AZI sheet): 200 nM | GI50 ([1]; A549/ATCC, AZI sheet): 110 nM | GI50 ([1]; ACHN, AZI sheet): 130 nM | GI50 ([1]; BT-549, AZI sheet): 1000 nM | GI50 ([1]; CAKI-1, AZI sheet): 150 nM | GI50 ([1]; CCRF-CEM, AZI sheet): 270 nM | GI50 ([1]; COLO 205, AZI sheet): 430 nM | GI50 ([1]; DU-145, AZI sheet): 170 nM | GI50 ([1]; EKVX, AZI sheet): 350 nM | GI50 ([1]; HCC-2998, AZI sheet): 150 nM | GI50 ([1]; HCT-15, AZI sheet): 210 nM | GI50 ([1]; HCT-116, AZI sheet): 230 nM | GI50 ([1]; HL-60(TB), AZI sheet): 390 nM | GI50 ([1]; HOP-62, AZI sheet): 150 nM | GI50 ([1]; HOP-92, AZI sheet): 1000 nM | GI50 ([1]; HT29, AZI sheet): 210 nM | GI50 ([1]; IGROV1, AZI sheet): 540 nM | GI50 ([1]; K-562, AZI sheet): 220 nM | GI50 ([1]; KM12, AZI sheet): 310 nM | GI50 ([1]; LOX IMVI, AZI sheet): 86 nM | GI50 ([1]; M14, AZI sheet): 200 nM | GI50 ([1]; MALME-3M, AZI sheet): 230 nM | GI50 ([1]; MCF7, AZI sheet): 49 nM | GI50 ([1]; MDA-MB-231, AZI sheet): 402 nM | GI50 ([1]; MDA-MB-435, AZI sheet): 290 nM | GI50 ([1]; MDA-MB-468, AZI sheet): 150 nM | GI50 ([1]; MOLT-4, AZI sheet): 230 nM | GI50 ([1]; NCI-H23, AZI sheet): 66 nM | GI50 ([1]; NCI-H226, AZI sheet): 150 nM | GI50 ([1]; NCI-H460, AZI sheet): 31 nM | GI50 ([1]; NCI-H522, AZI sheet): 250 nM | GI50 ([1]; OVCAR-3, AZI sheet): 430 nM | GI50 ([1]; OVCAR-4, AZI sheet): 1400 nM | GI50 ([1]; OVCAR-5, AZI sheet): 390 nM | GI50 ([1]; OVCAR-8, AZI sheet): 140 nM | GI50 ([1]; PC-3, AZI sheet): 378 nM | GI50 ([1]; RPMI-8226, AZI sheet): 570 nM | GI50 ([1]; RXF 393, AZI sheet): 190 nM | GI50 ([1]; SF-268, AZI sheet): 280 nM | GI50 ([1]; SF-295, AZI sheet): 110 nM | GI50 ([1]; SF-539, AZI sheet): 330 nM | GI50 ([1]; SK-MEL-2, AZI sheet): 340 nM | GI50 ([1]; SK-MEL-5, AZI sheet): 150 nM | GI50 ([1]; SK-MEL-28, AZI sheet): 210 nM | GI50 ([1]; SK-OV-3, AZI sheet): 310 nM | GI50 ([1]; SN12C, AZI sheet): 530 nM | GI50 ([1]; SNB-19, AZI sheet): 270 nM | GI50 ([1]; SR, AZI sheet): 66 nM | GI50 ([1]; SW-620, AZI sheet): 130 nM | GI50 ([1]; T-47D, AZI sheet): 570 nM | GI50 ([1]; TK-10, AZI sheet): 1600 nM | GI50 ([1]; U251, AZI sheet): 100 nM | GI50 ([1]; UACC-62, AZI sheet): 110 nM | GI50 ([1]; UACC-257, AZI sheet): 380 nM | GI50 ([1]; UO-31, AZI sheet): 190 nM | IC50(HeLa)/IC50(A549) (HeLa-HRE cells): 8.9 | IC50 (HeLa-HRE cells): 890 nM | IC50 (A549 cells): 100 nM | remarks (mouse): well tolerated | well-tolerated dose (mouse; weekly or twice-weekly administration): 3 mg/kg

CN(CCSSCCN1CCOCC1)C(=O)Oc1cc2c(c3ccccc13)[C@H](CCl)CN2C(=O)c1cc2cc(OCCCN3CCC3)ccc2[nH]1 [SS00M-CBI-AZI]
GI50 ([1]; 786-0, AZI sheet): 32 nM | GI50 ([1]; A498, AZI sheet): 9.1 nM | GI50 ([1]; A549/ATCC, AZI sheet): 4.5 nM | GI50 ([1]; ACHN, AZI sheet): 28 nM | GI50 ([1]; BT-549, AZI sheet): 84 nM | GI50 ([1]; CAKI-1, AZI sheet): 37 nM | GI50 ([1]; CCRF-CEM, AZI sheet): 100 nM | GI50 ([1]; COLO 205, AZI sheet): 320 nM | GI50 ([1]; DU-145, AZI sheet): 12 nM | GI50 ([1]; EKVX, AZI sheet): 42 nM | GI50 ([1]; HCC-2998, AZI sheet): 27 nM | GI50 ([1]; HCT-15, AZI sheet): 57 nM | GI50 ([1]; HCT-116, AZI sheet): 45 nM | GI50 ([1]; HL-60(TB), AZI sheet): 130 nM | GI50 ([1]; HOP-62, AZI sheet): 2.5 nM | GI50 ([1]; HOP-92, AZI sheet): 380 nM | GI50 ([1]; HT29, AZI sheet): 70 nM | GI50 ([1]; IGROV1, AZI sheet): 45 nM | GI50 ([1]; K-562, AZI sheet): 75 nM | GI50 ([1]; KM12, AZI sheet): 31 nM | GI50 ([1]; LOX IMVI, AZI sheet): 8.7 nM | GI50 ([1]; M14, AZI sheet): 10 nM | GI50 ([1]; MALME-3M, AZI sheet): 48 nM | GI50 ([1]; MCF7, AZI sheet): 7.5 nM | GI50 ([1]; MDA-MB-231, AZI sheet): 71.1 nM | GI50 ([1]; MDA-MB-435, AZI sheet): 37 nM | GI50 ([1]; MDA-MB-468, AZI sheet): 40 nM | GI50 ([1]; MOLT-4, AZI sheet): 50 nM | GI50 ([1]; NCI-H23, AZI sheet): 10 nM | GI50 ([1]; NCI-H226, AZI sheet): 9.5 nM | GI50 ([1]; NCI-H522, AZI sheet): 270 nM | GI50 ([1]; OVCAR-3, AZI sheet): 240 nM | GI50 ([1]; OVCAR-4, AZI sheet): 620 nM | GI50 ([1]; OVCAR-5, AZI sheet): 68 nM | GI50 ([1]; OVCAR-8, AZI sheet): 25 nM | GI50 ([1]; PC-3, AZI sheet): 39.6 nM | GI50 ([1]; RPMI-8226, AZI sheet): 470 nM | GI50 ([1]; RXF 393, AZI sheet): 41 nM | GI50 ([1]; SF-268, AZI sheet): 24 nM | GI50 ([1]; SF-295, AZI sheet): 3 nM | GI50 ([1]; SF-539, AZI sheet): 51 nM | GI50 ([1]; SK-MEL-2, AZI sheet): 49 nM | GI50 ([1]; SK-MEL-5, AZI sheet): 6.3 nM | GI50 ([1]; SK-MEL-28, AZI sheet): 29 nM | GI50 ([1]; SK-OV-3, AZI sheet): 8.7 nM | GI50 ([1]; SN12C, AZI sheet): 65 nM | GI50 ([1]; SNB-19, AZI sheet): 6.6 nM | GI50 ([1]; SR, AZI sheet): 7.4 nM | GI50 ([1]; SW-620, AZI sheet): 46 nM | GI50 ([1]; T-47D, AZI sheet): 290 nM | GI50 ([1]; TK-10, AZI sheet): 970 nM | GI50 ([1]; U251, AZI sheet): 3.6 nM | GI50 ([1]; UACC-62, AZI sheet): 6.2 nM | GI50 ([1]; UACC-257, AZI sheet): 92 nM | GI50 ([1]; UO-31, AZI sheet): 44 nM | IC50(HeLa)/IC50(A549) (HeLa-HRE cells): 1.7 | IC50 (HeLa-HRE cells): 6.9 nM | IC50 (A549 cells): 4.1 nM

COc1cc2cc(C(=O)N3C[C@@H](CCl)c4c3cc(OC(=O)N(C)CCSSCCN3CCOCC3)c3ccccc43)[nH]c2c(OC)c1OC [SS00M-CBI-TMI]
GI50 ([1]; 786-0): 16 nM | GI50 ([1]; A498): 270 nM | GI50 ([1]; A549/ATCC): 31 nM | GI50 ([1]; ACHN): 19 nM | GI50 ([1]; BT-549): 15 nM | GI50 ([1]; CAKI-1): 41 nM | GI50 ([1]; CCRF-CEM): 100 nM | GI50 ([1]; COLO 205): 450 nM | GI50 ([1]; EKVX): 82 nM | GI50 ([1]; HCC-2998): 78 nM | GI50 ([1]; HCT-15): 190 nM | GI50 ([1]; HCT-116): 610 nM | GI50 ([1]; HL-60(TB)): 78 nM | GI50 ([1]; HOP-62): 11 nM | GI50 ([1]; HOP-92): 750 nM | GI50 ([1]; HT29): 320 nM | GI50 ([1]; IGROV1): 23 nM | GI50 ([1]; K-562): 330 nM | GI50 ([1]; KM12): 150 nM | GI50 ([1]; LOX IMVI): 42 nM | GI50 ([1]; M14): 31 nM | GI50 ([1]; MALME-3M): 110 nM | GI50 ([1]; MDA-MB-435): 51 nM | GI50 ([1]; MDA-MB-468): 12 nM | GI50 ([1]; MOLT-4): 17 nM | GI50 ([1]; NCI-H23): 9.6 nM | GI50 ([1]; NCI-H226): 29 nM | GI50 ([1]; NCI-H460): 9.5 nM | GI50 ([1]; NCI-H522): 400 nM | GI50 ([1]; OVCAR-3): 690 nM | GI50 ([1]; OVCAR-4): 560 nM | GI50 ([1]; OVCAR-5): 82 nM | GI50 ([1]; OVCAR-8): 43 nM | GI50 ([1]; PC-3): 25 nM | GI50 ([1]; RPMI-8226): 850 nM | GI50 ([1]; RXF 393): 6.6 nM | GI50 ([1]; SF-268): 21 nM | GI50 ([1]; SF-295): 7.4 nM | GI50 ([1]; SF-539): 8.3 nM | GI50 ([1]; SK-MEL-5): 35 nM | GI50 ([1]; SK-MEL-28): 41 nM | GI50 ([1]; SK-OV-3): 16 nM | GI50 ([1]; SN12C): 34 nM | GI50 ([1]; SNB-19): 28 nM | GI50 ([1]; SR): 6.9 nM | GI50 ([1]; SW-620): 570 nM | GI50 ([1]; T-47D): 50 nM | GI50 ([1]; TK-10): 820 nM | GI50 ([1]; U251): 18 nM | GI50 ([1]; UACC-62): 52 nM | GI50 ([1]; UACC-257): 500 nM | IC50(HeLa)/IC50(A549) (HeLa-HRE cells): 3.6 | IC50 (HeLa-HRE cells): 125 nM | IC50 (A549 cells): 35 nM

CN(C(=O)Oc1cc2c(c3ccccc13)[C@H](CCl)CN2C(=O)c1cc2cc(OCCCN3CCC3)ccc2[nH]1)[C@H]1CCS[Se]C1 [SeS60-CBI-AZI]
IC50 (HeLa-HRE cells; Homo sapiens): 49 nM | IC50(HeLa)/IC50(A549) (HeLa-HRE cells): 0.8 | IC50 (A549 cells; Homo sapiens): 60 nM | remarks (mouse): adverse effects | outcome of repeated dosing at 3 mg/kg (Balb/c mice; once weekly): significant loss of body weight | outcome of repeated dosing at 1 mg/kg (Balb/c mice; treated twice a week): still caused adverse effects
